Among the data in patent US12203099B2, “Methods of expanding cholangiocytes” (Cambridge Enterprise Limited, priority 2017, dated 2025) are organoid diameter values, retold here.

This test deals with ECOs. Description: Response to secretin and somatostatin (organoid diameter). It counts as cell-based, human. The conditions noted are these: ECOs exposed to secretin, compared to untreated controls. On the procedure:
Responses to secretin and somatostatin were assessed as described in Sapazoits F, et al. (Biotechnol. 2015 1-11).
We then further characterized ECOs by focusing on their function following long-term culture (20 passages). The biliary epithelium regulates the homeostasis of bile through the transport of ions, water and bile acids. The secretory capacity of ECOs was interrogated using Rhodamine-123, a fluorescent substrate for the cholangiocyte surface glycoprotein Multidrug Resistance protein-1 (MDR1) (FIGS. 10 and 11). […]. […] The response of ECOs to secretin and somatostatin was also assessed. Secretin promotes water secretion, distending the bile duct lumen, while somatostatin negates the effects of secretin.

In the case of secretin, the organoid diameter entry is “increased their diameter compared to untreated controls”.
